Tested on: DGL
Test: DGL (MAG biosynthetic enzyme) activity assay, UPLC-MS/MS, jejunum epithelium protein isolates
Assay type: biochemical, mouse
Conditions: jejunum epithelium protein 50 μg
Procedure: Homogenized samples were centrifuged at 800 × g for 15 m at 4°C. The supernatant was collected in a 2.0 mL centrifuge tube and sonicated twice for 10 s. Samples underwent two sequential freeze thaw cycles using liquid N2. Samples were again centrifuged at 800 × g, 15 min, 4°C and the supernatant was collected. Total protein was then quantified via BCA assay and normalized between all samples. Protein isolations for each assay and each tissue were performed separately.
Substrate solutions were prepared by drying stock 19:2 DAG (20 nmol/reaction) under N2 steam (99.998% pure) and reconstituted in a solution of 50 mM Tris–HCl with 0.2% Triton x-100 (pH = 7.0). This solution was bath sonicated for 60 min at room temperature while protein samples were prepared. […] The products of the reaction were extracted via lipid extraction methods (see section “Lipid Extraction for Enzyme Assays”) and quantified via UPLC-MS/MS (see section “Quantitation of MAG Biosynthetic Enzyme Activity Assay Products”).
Lipids were extracted using liquid-liquid extraction with chloroform (2.0 mL) followed by 0.8 mL 0.2-micron ultra-purified water. […] Products were detected and quantified via UPLC-MS/MS techniques (see section “UPLC-MS/MS Detection of Analytes”). […]

## CCCCCCCCCCC[C@@H](C[C@@H]1OC(=O)[C@H]1CCCCCC)OC(=O)[C@H](CC(C)C)NC=O [THL, tetrahydrolipstatin]
Highest inhibitor concentration of range (1,000 nM)
  DGL activity (normalized response): 20.39 ± 6.65%
Lowest inhibitor concentration of range (3 nM)
  DGL activity (normalized response): 108.85 ± 6.19%
